The assay has as its target Prostaglandin G/H synthase 1 (Bos taurus) (UniProt O62664). Put plainly: Inhibitory activity against bovine seminal vesicle prostaglandin synthetase.

Sequence of Prostaglandin G/H synthase 1 (Bos taurus) (O62664 whole entry, looked up): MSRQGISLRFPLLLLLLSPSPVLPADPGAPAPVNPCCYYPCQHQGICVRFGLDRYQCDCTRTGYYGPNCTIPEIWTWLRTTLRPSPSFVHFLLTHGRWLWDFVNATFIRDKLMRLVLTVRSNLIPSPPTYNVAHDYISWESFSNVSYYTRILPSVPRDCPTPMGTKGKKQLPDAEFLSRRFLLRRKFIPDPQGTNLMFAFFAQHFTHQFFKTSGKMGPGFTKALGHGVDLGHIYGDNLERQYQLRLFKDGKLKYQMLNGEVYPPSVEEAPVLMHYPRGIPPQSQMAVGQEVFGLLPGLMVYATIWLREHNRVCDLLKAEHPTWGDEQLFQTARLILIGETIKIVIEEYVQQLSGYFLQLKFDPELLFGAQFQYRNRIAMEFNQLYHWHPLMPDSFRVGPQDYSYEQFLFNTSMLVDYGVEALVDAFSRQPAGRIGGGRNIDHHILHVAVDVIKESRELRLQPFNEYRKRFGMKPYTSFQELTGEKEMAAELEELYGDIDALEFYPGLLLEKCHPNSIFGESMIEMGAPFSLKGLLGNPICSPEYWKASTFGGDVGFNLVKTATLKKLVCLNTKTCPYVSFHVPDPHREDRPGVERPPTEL

Compound `CS(=O)(=O)c1ccc(-c2[nH]c(SC#N)cc2-c2ccc(F)cc2)cc1` [3-(4-Fluoro-phenyl)-2-(4-methanesulfonyl-phenyl)-5-thiocyanato-1H-pyrrole] gave a 50% inhibitory concentration (IC50) of 6.2 µM.

One may read the IC50 as the point on the concentration scale where inhibition reaches its midpoint. A higher IC50 goes with weaker potency.

(Values after BindingDB's records for doi:10.1021/jm00033a017 (Dupont Pharmaceuticals, 1994).)
